Reference: US20240140944A1, “NOVEL NAPHTHYRIDINONE DERIVATIVE HAVING INHIBITORY ACTIVITY AGAINST ECTONUCLEOTIDE PYROPHOSPHATASE-PHOSPHODIESTERASE AND USE THEREOF” (TXINNO BIOSCIENCE INC., priority 2020, published 2024)
Counter-ions that a name gives are not always drawn.

Biological target: T1, human recombinant ENPP1 enzymes (Homo sapiens, UniProt P22413)
T1 construct: purchased R & D systems
T1 sequence (P22413 1-925): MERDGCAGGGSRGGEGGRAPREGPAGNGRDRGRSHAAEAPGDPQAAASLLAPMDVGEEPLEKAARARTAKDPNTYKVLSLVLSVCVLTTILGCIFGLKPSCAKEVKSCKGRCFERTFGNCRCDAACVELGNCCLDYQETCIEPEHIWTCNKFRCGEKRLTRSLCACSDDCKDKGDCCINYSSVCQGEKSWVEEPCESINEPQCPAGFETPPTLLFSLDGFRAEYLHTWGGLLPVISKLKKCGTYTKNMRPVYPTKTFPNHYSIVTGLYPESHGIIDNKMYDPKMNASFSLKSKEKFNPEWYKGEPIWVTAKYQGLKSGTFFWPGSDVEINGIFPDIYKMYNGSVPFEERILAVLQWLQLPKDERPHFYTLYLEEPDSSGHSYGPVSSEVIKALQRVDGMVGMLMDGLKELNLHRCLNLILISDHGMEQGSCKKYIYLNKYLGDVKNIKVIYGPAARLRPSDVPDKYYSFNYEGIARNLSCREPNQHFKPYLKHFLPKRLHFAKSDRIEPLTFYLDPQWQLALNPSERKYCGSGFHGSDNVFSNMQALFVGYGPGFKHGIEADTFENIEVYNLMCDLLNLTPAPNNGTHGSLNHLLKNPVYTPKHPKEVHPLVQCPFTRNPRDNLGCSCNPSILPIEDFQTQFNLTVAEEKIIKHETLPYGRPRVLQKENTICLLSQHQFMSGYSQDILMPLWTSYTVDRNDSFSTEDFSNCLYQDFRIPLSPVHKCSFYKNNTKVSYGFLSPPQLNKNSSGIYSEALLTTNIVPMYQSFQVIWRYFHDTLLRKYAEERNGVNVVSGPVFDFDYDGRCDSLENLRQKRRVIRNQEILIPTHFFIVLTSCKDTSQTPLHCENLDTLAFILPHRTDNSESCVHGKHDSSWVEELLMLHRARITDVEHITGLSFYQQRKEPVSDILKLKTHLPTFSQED
Assay: ENPP1 Enzyme Assay with cGAMP Substrate (AMP-Glo)
Assay type: biochemical
Conditions: human recombinant ENPP1 3 ng/reaction, cGAMP 5 μM, 37° C. 90 minutes, average of two or more tests; read-out: Enzymatic activity IC50
Procedure: ENPP1 hydrolyzes nucleotides or nucleotide derivatives to produce nucleoside-5′-monophosphate and pyrophosphate. In addition, ENPP1 hydrolyzes 2′,3′-cGAMP to produce 5′-adenosine monophosphate (AMP) and 5′-guanosine monophosphate (GMP). AMP produced from the reaction is measured using the AMP-Glo® kit (Promega). The AMP-Glo® kit contains two reagents. The first reagent terminates the AMP-producing enzymatic reaction, removes ATP and converts the produced AMP into ADP. The second reagent converts ADP to ATP which is used to generate luminescence in the luciferase reaction. The amount of luminescence measured is proportional to the amount of AMP produced by ENPP1.
The final reaction mixture contains 50 mM Tris (pH 8.5) buffer, 250 mM NaCl, 0.5 mM CaCl2), 1 μM ZnCl2, 5% glycerol and 1% DMSO. Serially diluted ENPP1 inhibitors (typically in the range of 10 μM to 0.5 nM) were pre-stored with human recombinant ENPP1 enzymes (R & D systems) at 3 ng/reaction and room temperature (RT) for 5 to 10 minutes. The reaction was initiated by addition of cGAMP (at a final concentration of 5 μM) and reacted at 37° C. for 90 minutes. At the end of the reaction, 10 μl of the AMP-Glo first reagent was added to stop the reaction and the result was stored at room temperature for 1 hour. After storage, 20 μl of an AMP detection solution (a mixture of AMP-Glo II reagent and Kinase-Glo at a ratio of 1:100) was added and stored at room temperature for 1 hour. Luminescence signals were measured using a Victor® plate reader (Perkin Elmer). The maximal activity control (containing enzymes and substrates in the presence of 1% DMSO; MAX) and the minimal activity control (containing substrates and 1% DMSO; MIN) were evaluated simultaneously. In each experiment, serially diluted reference ENPP1 inhibitors were tested as well. IC50, indicating % residual activity versus compound concentration was determined by fitting inhibition curves using the 3-parameter analysis of GraphPad Prism® software. Serially diluted samples of one compound were tested two or more times and an average IC50 of each compound was calculated.

Structure (SMILES)	IC50 [nM]
NS(=O)(=O)N1CCc2ccc(Nc3ccnc4c3CCC(=O)N4)cc2C1 [Example 144, (7-(7-oxo-5,6,7,8-tetrahydro-1,8-naphthyridin-4-yl)amino)-3,4-dihydroisoquinoline-2(1H)-sulfamide hydrochloride]	< 1000
O=c1ccc2c(-c3ccc4c(c3)CNCC4)ccnc2[nH]1 [Example 27, 5-(1,2,3,4-tetrahydroisoquinolin-7-yl)-1,8-naphthyridin-2(1H)-one hydrochloride]	1000 to 10000
Cn1c(=O)ccc2c(-c3ccc(CNS(N)(=O)=O)cc3)ccnc21 [Example 67, N-(4-(8-methyl-7-oxo-7,8-dihydro-1,8-naphthyridin-4-yl)benzyl)sulfamide]	< 1000
NCc1ccc(-c2ccnc3c2CCC(=O)N3)cc1 [Example 133, 5-(4-(aminomethyl)phenyl)-3,4-dihydro-1,8-naphthyridin-2(1H)-one hydrochloride]	< 1000
O=c1ccc2c(-c3ccc(CP(=O)(O)O)cc3)ccnc2[nH]1 [Example 75, (4-(7-oxo-7,8-dihydro-1,8-naphthyridin-4-yl)benzyl)phosphonic acid]	< 1000
Cl.Nc1ccc(F)c(-c2ccnc3[nH]c(=O)ccc23)c1 [Example 8, 5-(5-(amino-2-fluorophenyl)-1,8-naphthyridin-2(1H)-one hydrochloride]	> 10000
CCOP(=O)(O)Cc1ccc(-c2ccnc3[nH]c(=O)ccc23)cc1 [Example 74, ethylhydrogen(4-(7-oxo-7,8-dihydro-1,8-naphthyridin-4-yl)benzyl)phosphonate]	1000 to 10000
O=c1ccc2c(-c3ccc(CNS(=O)(=O)c4cccs4)cc3)ccnc2[nH]1 [Example 70, N-(4-(7-oxo-7,8-dihydro-1,8-naphthyridin-4-yl)benzyl)thiophene-2-sulfonamide]	< 1000
CC(C)(C)OC(=O)NS(=O)(=O)N1CCc2ccc(-c3ccnc4c3CCC(=O)N4)cc2C1 [Example 138, tert-butyl((7-(7-oxo-5,6,7,8-tetrahydro-1,8-naphthyridin-4-yl)-3,4-diisoquinoline-2(1H)-yl)sulfonyl)carbamate]	1000 to 10000
CC(C)(C)OC(=O)Nc1cccc(-c2ccnc3[nH]c(=O)ccc23)c1 [Example 1, tert-butyl(3-(7-oxo-7,8-dihydro-1,8-naphthyridin-4-yl)phenyl)carbamate]	1000 to 10000
CC(C)(N)c1ccc(-c2ccnc3[nH]c(=O)ccc23)cc1 [Example 16, 5-(4-(2-aminopropan-2-yl)phenyl)-1,8-naphthyridin-2(1H)-one hydrochloride]	1000 to 10000
NCc1cc(Nc2ccnc3[nH]c(=O)ccc23)ccc1F [Example 78, 5-((3-aminomethyl)-4-fluorophenyl)amino)-1,8-naphthyridin-2(1H)-one dihydrochloride]	< 1000
NCc1cccc(Nc2ccnc3[nH]c(=O)ccc23)c1 [Example 77, 5-((3-aminomethyl)phenyl)amino)-1,8-naphthyridin-2(1H)-one dihydrochloride]	< 1000

Continued, values first:

IC50 [nM]	Structure (SMILES)
< 1000	NS(=O)(=O)NCc1ccc(-c2ccnc3[nH]c(=O)ccc23)cc1 [Example 40, N-(4-(7-oxo-7,8-dihydro-1,8-naphthyridin-4-yl)benzyl)sulfamide]
< 1000	NS(=O)(=O)NCc1cccc(Nc2ccnc3[nH]c(=O)ccc23)c1 [Example 89, N-(3-((7-oxo-7,8-dihydro-1,8-naphthyridin-4-yl)amino)benzyl)sulfamide dihydrochloride]
< 1000	NS(=O)(=O)NCCc1cccc(Nc2ccnc3[nH]c(=O)ccc23)c1 [Example 92, N-(3-((7-oxo-7,8-dihydro-1,8-naphthyridin-4-yl)amino)phenethyl)sulfamide dihydrochloride]
< 1000	C[C@@H](NS(N)(=O)=O)c1ccc(-c2ccnc3[nH]c(=O)ccc23)cc1 [Example 46, (R)-(N-(1-(4-(7-oxo-7,8-dihydro-1,8-naphthyridin-4-yl)phenyl)ethyl)sulfamide hydrochloride]
< 1000	NS(=O)(=O)NCc1ccc(F)c(Nc2ccnc3[nH]c(=O)ccc23)c1 [Example 91, N-(4-fluoro-3-((7-oxo-7,8-dihydro-1,8-naphthyridin-4-yl)amino)benzyl)sulfamide dihydrochloride]
< 1000	NS(=O)(=O)NC1CCN(c2ccnc3[nH]c(=O)ccc23)CC1 [Example 123, N-(1-(7-oxo-7,8-dihydro-1,8-naphthyridin-4-yl)piperidin-4-yl)sulfamide]
< 1000	C[C@H](NS(N)(=O)=O)c1ccc(-c2ccnc3[nH]c(=O)ccc23)cc1 [Example 47, (S)-(N-(1-(4-(7-oxo-7,8-dihydro-1,8-naphthyridin-4-yl)phenyl)ethyl)sulfamide hydrochloride]
< 1000	NCCC1CCN(c2ccnc3[nH]c(=O)ccc23)CC1 [Example 115, 5-(4-(2-aminoethyl)piperidin-1-yl)-1,8-naphthyridin-2(1H)-one hydrochloride]
< 1000	NS(=O)(=O)N1Cc2ccc(Nc3ccnc4[nH]c(=O)ccc34)cc2C1 [Example 101, 5-((7-oxo-7,8-dihydro-1,8-naphthyridin-4-yl)amino)isoindolin-2-yl)sulfamide dihydrochloride]
> 10000	Cn1c(=O)ccc2c(N3CCC(CN)CC3)ccnc21 [Example 118, 5-(4-(aminomethyl)piperidin-1-yl)-1-methyl-1,8-naphthyridin-2(1H)-one hydrochloride]
1000 to 10000	O=c1ccc2c(N3CCC4(CCNC4)CC3)ccnc2[nH]1 [Example 117, 5-(2,8-diazaspiro[4,5]decan-8-yl)-1,8-naphthyridin-2(1H)-one hydrochloride]
1000 to 10000	NS(=O)(=O)N1CCCN(c2ccnc3[nH]c(=O)ccc23)CC1 [Example 127]
< 1000	C[C@H](c1ccc(-c2ccnc3[nH]c(=O)ccc23)cc1)N(C)S(N)(=O)=O [Example 59, (R)-(N-methyl-N-(1-(4-(7-oxo-7,8-dihydro-1,8-naphthyridin-4-yl)phenyl)ethyl)sulfamide hydrochloride]
< 1000	NS(=O)(=O)NCc1cc(F)c(-c2ccnc3[nH]c(=O)ccc23)c(F)c1 [Example 44, N-(3,5-difluoro-4-(7-oxo-7,8-dihydro-1,8-naphthyridin-4-yl)benzyl)sulfamide hydrochloride]
< 1000	NS(=O)(=O)N1CCc2cc(F)c(-c3ccnc4[nH]c(=O)ccc34)cc2C1 [Example 66, 6-fluoro-7-(7-oxo-7,8-dihydro-1,8-naphthyridin-4-yl)-3,4-dihydroisoquinoline-2(1H)-sulfamide hydrochloride]
< 1000	Nc1ccc(Nc2ccnc3[nH]c(=O)ccc23)cc1 [Example 81, 5-((4-aminophenyl)amino)-1,8-naphthyridin-2(1H)-one dihydrochloride]
< 1000	NC1CCN(c2ccnc3[nH]c(=O)ccc23)CC1 [Example 113, 5-(4-aminopiperidin-1-yl)-1,8-naphthyridin-2(1H)-one hydrochloride]
< 1000	NS(=O)(=O)NC1Cc2ccc(Nc3ccnc4[nH]c(=O)ccc34)cc2C1 (stereo not shown) [Example 107, N-(5-((7-oxo-7,8-dihydro-1,8-naphthyridin-4-yl)amino)-2,3-dihydro-1H-inden-2-yl)sulfamide dihydrochloride]
